This passage reports inhibition results from article PMC6934184, “Selective DNA-PKcs inhibition extends the therapeutic index of localized radiotherapy and chemotherapy” (The Journal of Clinical Investigation, 2019).

This experiment addresses T1, DCAMKL2 (DCK2) (Homo sapiens, UniProt Q8N568).
T1 construct: purchased Thermo Fisher Scientific (Life Technologies) SelectScreen
Kind of experiment: SelectScreen Z'LYTE. In kind it is biochemical. In outline:
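NU5455 was profiled across the SelectScreen Broad panel of kinase activity and binding assays. Z'LYTE reactions such as CSF1R ran at apparent Km ATP, while the Adapta CAMK1 assay used ATP listed as 10. Values are given as percent.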

SMILES strings stand for the structures.

T1 sequence (Q8N568 whole entry): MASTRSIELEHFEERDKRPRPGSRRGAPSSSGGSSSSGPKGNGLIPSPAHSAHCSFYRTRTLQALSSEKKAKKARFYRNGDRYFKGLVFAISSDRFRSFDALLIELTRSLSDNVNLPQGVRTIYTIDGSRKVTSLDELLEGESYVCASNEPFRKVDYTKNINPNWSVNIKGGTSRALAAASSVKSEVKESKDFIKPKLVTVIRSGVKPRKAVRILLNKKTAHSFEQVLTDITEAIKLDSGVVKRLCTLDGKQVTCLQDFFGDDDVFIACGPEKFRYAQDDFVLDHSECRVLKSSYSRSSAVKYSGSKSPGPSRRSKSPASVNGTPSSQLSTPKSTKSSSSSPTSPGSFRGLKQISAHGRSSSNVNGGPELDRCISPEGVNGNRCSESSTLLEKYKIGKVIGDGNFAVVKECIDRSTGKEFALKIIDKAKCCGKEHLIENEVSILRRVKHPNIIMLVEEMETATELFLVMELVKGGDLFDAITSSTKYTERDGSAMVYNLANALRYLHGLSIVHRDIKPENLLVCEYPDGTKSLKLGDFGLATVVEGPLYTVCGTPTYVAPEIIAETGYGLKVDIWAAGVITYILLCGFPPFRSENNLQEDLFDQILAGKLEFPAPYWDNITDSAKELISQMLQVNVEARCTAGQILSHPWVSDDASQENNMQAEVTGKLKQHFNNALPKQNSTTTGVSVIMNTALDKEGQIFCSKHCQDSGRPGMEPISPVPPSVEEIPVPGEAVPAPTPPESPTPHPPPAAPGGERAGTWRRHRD

`CN(C(=O)CN1CCOCC1)c1ccc2sc3c(-c4cccc5c(=O)cc(N6CC7CCC(C6)O7)oc45)cccc3c2c1` [NU5455] had an inhibition at 1 µM of 1.5%.

In general, inhibition refers to the share of the control response that was lost under treatment.
